According to publication PMC9403976, “Elucidating the path to Plasmodium prolyl-tRNA synthetase inhibitors that overcome halofuginone resistance” (Nature Communications, 2022):
“And” between values parts separate entries of the source, which are not always exact repeats. Identical values can stand only once. Like-named read-outs stand apart in the source and are kept apart here.

What was measured:
P. falciparum Dd2-2D4 = test: P. falciparum asexual blood stage (ABS) growth assay, SYBR Green, 72 h, wild-type parasites; format: cell-based, Plasmodium falciparum; conditions: Plasmodium falciparum, DD2; SI Fig 16b; values on -log scale; read-out: ABS - Dd2-2D4 (converted)
PfcProRS = molecular target: T1, PfcProRS (Plasmodium falciparum, UniProt Q8I5R7); format: binding; conditions: replicates 1-3
T1 construct: made in house; host or cells: E. coli SoluBL-21
T1 sequence (Q8I5R7 249-746): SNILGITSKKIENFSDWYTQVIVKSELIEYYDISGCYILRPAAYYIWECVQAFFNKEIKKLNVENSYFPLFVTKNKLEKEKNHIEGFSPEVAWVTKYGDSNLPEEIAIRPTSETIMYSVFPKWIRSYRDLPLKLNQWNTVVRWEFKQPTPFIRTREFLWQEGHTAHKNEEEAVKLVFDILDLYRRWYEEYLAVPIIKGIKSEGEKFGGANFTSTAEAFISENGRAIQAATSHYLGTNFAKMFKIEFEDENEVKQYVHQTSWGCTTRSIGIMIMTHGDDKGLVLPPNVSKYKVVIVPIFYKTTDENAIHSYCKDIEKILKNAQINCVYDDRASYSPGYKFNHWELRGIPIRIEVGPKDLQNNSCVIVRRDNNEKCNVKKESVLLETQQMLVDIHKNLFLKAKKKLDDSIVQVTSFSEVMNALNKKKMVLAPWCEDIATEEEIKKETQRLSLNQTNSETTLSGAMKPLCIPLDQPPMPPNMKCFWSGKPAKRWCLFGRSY

HsProRS = HsProRS (Homo sapiens, UniProt P07814); test: TR-FRET ligand displacement assay with tracer MAT379 (CoraFluor-1-Halo and anti-His6 antibody formats); format: binding; design: made in house; host or cells: E. coli SoluBL-21; conditions: for HsProRS % signal at 10 μM: no added proline/ATP (-)
Sequence of HsProRS (P07814 996-1512): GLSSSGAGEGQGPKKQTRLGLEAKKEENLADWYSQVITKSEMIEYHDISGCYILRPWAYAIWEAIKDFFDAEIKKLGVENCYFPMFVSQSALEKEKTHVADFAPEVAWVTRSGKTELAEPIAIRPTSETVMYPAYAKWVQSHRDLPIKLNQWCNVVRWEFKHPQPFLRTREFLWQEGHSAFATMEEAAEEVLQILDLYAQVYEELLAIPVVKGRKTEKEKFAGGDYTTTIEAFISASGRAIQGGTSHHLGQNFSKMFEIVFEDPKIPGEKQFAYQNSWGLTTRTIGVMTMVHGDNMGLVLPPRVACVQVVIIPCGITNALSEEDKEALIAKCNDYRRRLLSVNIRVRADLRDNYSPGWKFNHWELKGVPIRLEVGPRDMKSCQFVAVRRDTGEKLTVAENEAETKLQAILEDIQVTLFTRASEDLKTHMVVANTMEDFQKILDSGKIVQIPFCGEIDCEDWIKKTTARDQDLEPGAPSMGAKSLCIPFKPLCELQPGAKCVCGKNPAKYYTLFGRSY

[1] = read-out: HsProRS IC50 + 100 μM proline, + 100 μM proline

Compound	EC50 (P. falciparum Dd2-2D4) [µM]	Normalized response, dose-response replicates (SI Fig 14) (PfcProRS; Log[inhibitor] (M) -5.000)	Normalized response, dose-response replicates (SI Fig 14) (PfcProRS; Log[inhibitor] (M) -5.301)	Normalized response, dose-response replicates (SI Fig 14) (PfcProRS; Log[inhibitor] (M) -5.601)	Normalized response, dose-response replicates (SI Fig 14) (PfcProRS; Log[inhibitor] (M) -5.904)	Normalized response, dose-response replicates (SI Fig 14) (PfcProRS; Log[inhibitor] (M) -6.208)	Normalized response, dose-response replicates (SI Fig 14) (PfcProRS; Log[inhibitor] (M) -6.509)	Normalized response, dose-response replicates (SI Fig 14) (PfcProRS; Log[inhibitor] (M) -6.796)	Normalized response, dose-response replicates (SI Fig 14) (PfcProRS; Log[inhibitor] (M) -7.108)	Normalized response, dose-response replicates (SI Fig 14) (PfcProRS; Log[inhibitor] (M) -7.409)	Normalized response, dose-response replicates (SI Fig 14) (PfcProRS; Log[inhibitor] (M) -7.710)	Normalized response, dose-response replicates (SI Fig 14) (PfcProRS; Log[inhibitor] (M) -8.000)	Normalized response, dose-response replicates (SI Fig 14) (PfcProRS; Log[inhibitor] (M) -8.301)	Normalized response, dose-response replicates (SI Fig 14) (PfcProRS; Log[inhibitor] (M) -8.602)	Normalized response, dose-response replicates (SI Fig 14) (PfcProRS; Log[inhibitor] (M) -9.000)	Normalized response, dose-response replicates (SI Fig 14) (PfcProRS; Log[inhibitor] (M) -9.301)	IC50 (HsProRS) [µM]	HsProRS % signal at 10 μM, + 100 μM proline (HsProRS; + 100 μM proline) [%]	HsProRS % signal at 10 μM (HsProRS) [%]	IC50 (HsProRS; [1]) [µM]
O=C(NC1CCCCC1)c1nccnc1NC(=O)C1Cc2ccccc2C1 [compound 49]	6.81	8.45E-01 and 8.81E-01 and 7.61E-01	9.54E-01 and 9.61E-01 and 9.77E-01	1.16E+00 and 9.36E-01 and 1.07E+00	8.95E-01 and 1.06E+00 and 1.02E+00	1.16E+00 and 9.70E-01 and 1.06E+00	1.04E+00 and 1.06E+00 and 1.11E+00	1.05E+00 and 9.78E-01 and 1.11E+00	1.04E+00 and 1.10E+00 and 1.05E+00	1.08E+00 and 9.76E-01 and 1.10E+00	9.25E-01 and 1.04E+00 and 1.10E+00	1.07E+00 and 1.04E+00 and 1.10E+00	9.50E-01 and 1.14E+00 and 9.21E-01	9.83E-01 and 1.05E+00 and 9.81E-01	1.05E+00 and 1.09E+00 and 1.08E+00	1.08E+00 and 1.02E+00 and 9.82E-01	> 10	103	90.3	> 10
O=C(NC1Cc2ccccc2C1)c1nccnc1NS(=O)(=O)C1CCCCC1 [compound 50]	13	8.68E-01 and 9.74E-01 and 9.94E-01	9.83E-01 and 9.53E-01 and 9.64E-01	9.71E-01 and 9.90E-01 and 1.02E+00	1.05E+00 and 1.15E+00 and 1.14E+00	1.03E+00 and 9.74E-01 and 1.18E+00	1.04E+00 and 9.48E-01 and 1.06E+00	9.91E-01 and 1.03E+00 and 9.32E-01	9.63E-01 and 9.98E-01 and 1.15E+00	9.71E-01 and 8.81E-01 and 1.12E+00	9.98E-01 and 1.04E+00 and 1.13E+00	1.13E+00 and 9.44E-01 and 9.76E-01	8.99E-01 and 9.55E-01 and 8.96E-01	9.78E-01 and 9.85E-01 and 1.02E+00	9.55E-01 (2×) and 1.01E+00	9.48E-01 and 9.83E-01 and 9.54E-01	> 10	84.5	87.7	> 10
